Reference: patent US20150183737A1, “COMPOSITIONS AND METHODS FOR SUBSTRATE-SELECTIVE INHIBITION OF ENDOCANNABINOID OXYGENATION” (Vanderbilt University, priority 2012, published 2015)
Where two headings read alike, the source gives them in different places.

What was measured:
purified murine COX-2 [1] = target: T1, purified murine COX-2 (Mus musculus, UniProt Q05769); assay: Inhibition of mCOX-2 dependent oxygenation of 2-AG and AA by profens in vitro; type: biochemical; set-up: made in house; host or cells: insect cells
T1 sequence (Q05769 18-604): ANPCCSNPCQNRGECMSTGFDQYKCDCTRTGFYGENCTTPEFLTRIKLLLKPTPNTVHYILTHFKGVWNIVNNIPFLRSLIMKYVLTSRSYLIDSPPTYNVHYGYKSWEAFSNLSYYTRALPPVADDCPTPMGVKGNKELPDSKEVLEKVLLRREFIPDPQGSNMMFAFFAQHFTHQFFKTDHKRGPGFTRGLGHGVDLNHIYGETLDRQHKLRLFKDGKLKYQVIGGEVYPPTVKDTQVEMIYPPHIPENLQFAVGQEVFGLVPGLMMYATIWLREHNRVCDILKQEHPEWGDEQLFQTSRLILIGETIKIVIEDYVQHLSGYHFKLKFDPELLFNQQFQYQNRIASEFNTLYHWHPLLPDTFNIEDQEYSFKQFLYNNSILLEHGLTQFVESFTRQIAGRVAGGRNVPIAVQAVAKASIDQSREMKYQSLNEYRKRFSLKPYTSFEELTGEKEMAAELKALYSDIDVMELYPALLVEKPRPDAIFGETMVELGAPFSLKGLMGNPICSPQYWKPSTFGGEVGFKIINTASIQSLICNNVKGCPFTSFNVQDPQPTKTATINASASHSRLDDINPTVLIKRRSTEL
Method: Desired concentrations of inhibitor in DMSO or blank (DMSO) were incubated with mCOX-2 (40 nM) for 3 minutes in 100 mM Tris-HCl with 0.5 mM phenol, pH 8.0 at 37° C. After pre-incubation of enzyme and inhibitor, 5 μM of AA or 2-AG was added at 37° C. Thirty seconds later, the reaction was quenched with 200 μL of ice-cold ethyl acetate containing 0.5% acetic acid (v/v) and 1 μM PGE2-d4 and PGE2-G-d5. The solution was then vortexed and the aqueous layer frozen. The organic layer was removed and evaporated to near-dryness under nitrogen. The samples were reconstituted in 1:1 MeOH:H2O and chromatographed using a LUNA® C18(2) column (50 2 mm, 3 μm; Phenomenex, Torrance, Calif., United States of America). […] Analyte peak areas were normalized to the appropriate internal standard to determine the amount of product formation, and inhibition was determined by normalization to a DMSO control.

purified murine COX-2 [2] = target: T1, purified murine COX-2; assay: Inhibition of mCOX-2-dependent oxygenation of 2-AG and AA by lumiracoxib and derivatives in vitro; type: biochemical; set-up: made in house; host or cells: insect cells; dose or concentration left out as unconfirmed
[3] = test system: brain eCB, AA and PG levels; assay: Brain eCB, NAE, MAG, AA and PG levels after i.p. injection; type: in vivo, mice; settings: 40 mg/kg
Method: 5-7 week old male ICR mice were used for all experiments with the exception of knockout animals (Harlan, Indianapolis, Ind., United States of America). Mice were housed 5 per […]. All behavioral tests were conducted during the light cycle between 0900 and 1700. KO and WT littermate controls for FAAH^(−/−) and COX-2^(−/−) mice were derived from heterozygote breeding pairs, bred and genotyped as described in Uddin et al., 2011. CB1^(−/−) mice were bred from homozygote breeding pairs and genotyped as described in Pan et al., 2008. Mice were group-housed on a 12:12 light-dark cycle (lights on at 06:00), with food and water available ad libitum. All animal studies were approved by the Vanderbilt Institutional Animal Care and Use Committee and conducted in accordance with the Guide for the Care and Use of Laboratory Animals of the United States National Institutes of Health.
Mice were sacrificed by cervical dislocation and decapitation. The brain, lungs, liver, stomach, small intestines, and kidneys were then rapidly removed and frozen on a metal block in dry ice. The tissue was then placed in a tube and stored at −80° C. until extraction, usually one day after harvesting. For PG and eCB analysis, lipid extraction from tissue was carried out as described in Patel et al., 2009.
Analytes were quantified using LC-MS/MS on a Quantum triple-quadrupole mass spectrometer in positive-ion mode using selected reaction monitoring. Detection of eicosanoids was performed as described in Kingsley & Marnett, 2007. For fatty acid analysis the mobile phases used were 80 μM AgOAc with 0.1% (v/v) acetic acid in H2O (solvent A) and 120 μM AgOAc with 0.1% (v/v) acetic acid in MeOH (solvent B). The analytes were eluted using a gradient from 20% A to 99% B over 5 minutes. The transitions used were m/z 300→282 for PEA, m/z 328→310 for SEA, m/z 434→416 for OEA, m/z 456→438 for AEA, m/z 464→446 for AEA-d8, m/z 331→257 for 2-PG, m/z 359→285 for 2-SG, m/z 463→389 for 2-OG, m/z 485→411 for 2-AG, m/z 493→419 for 2-AG-d8, m/z 519→409 for AA, and m/z 527→417 for AA-d8. Peak areas for the analytes were normalized to the appropriate internal standard and then normalized to tissue mass for in vivo samples.

[4] = chiral profens, at 10 μM inhibitor, AA 5 μM, read-out: % Inhibition AA
[5] = chiral profens, murine COX-2 40 nM, 3 min preincubation, 2-AG 5 μM, mean ± SD, read-out: IC50 (μM) 2-AG
[6] = achiral profens, at 10 μM inhibitor, AA 5 μM, read-out: AA % Inhibition
[7] = achiral profens, murine COX-2 40 nM, 3 min preincubation, 2-AG 5 μM, 37° C., 30 s, mean ± SD, read-out: 2-AG IC50
[8] = read-out: Maximum inhibition of 2-AG oxygenation, achiral profens, at 10 μM inhibitor, 2-AG 5 μM
[9] = 0.5 min, achiral profens, murine COX-2 40 nM, 3 min preincubation, 2-AG 5 μM, 37° C., 30 s, mean ± SD, read-out: 2-AG IC50
[10] = 15 min incubation, read-out: Maximum inhibition of AA oxygenation (converted)
[11] = inhibitor incubated with enzyme for 15 min before addition of substrate, read-out: AA IC50

CC(C(=O)O)c1cccc(Oc2ccccc2)c1 (racemic) [Compound 6d, fenoprofen, reference compound]
inhibition at 10 µM (purified murine COX-2 [1]; [4]): 20%
IC50 (purified murine COX-2 [1]; [5]): 0.9 µM

CC(C(=O)O)c1cccc(C(=O)c2ccccc2)c1 (racemic) [Compound 6e, ketoprofen, reference compound]
IC50 (purified murine COX-2 [1]; [5]): 0.3 µM
inhibition at 10 µM (purified murine COX-2 [1]; read-out: % Inhibition AA): 50%

C[C@H](C(=O)O)c1cccc(Oc2ccccc2)c1 [(S)-fenoprofen, reference compound]
% Inhibition AA (purified murine COX-2 [1]; chiral profens, at 10 μM inhibitor, AA 5 μM): 30%
IC50 (purified murine COX-2 [1]; [5]): 0.9 µM

C[C@H](C(=O)O)c1cccc(C(=O)c2ccccc2)c1 [(S)-ketoprofen, reference compound]
IC50 (purified murine COX-2 [1]; [5]): 0.2 µM
inhibition at 10 µM (purified murine COX-2 [1]; read-out: % Inhibition AA): 55%

COc1ccc2cc(CC(=O)O)ccc2c1 [Compound 3b, 2-(6-methoxynaphthalen-2-yl)acetic acid]
inhibition at 10 µM (purified murine COX-2 [1]; [6]): 16%
IC50 (purified murine COX-2 [1]; [7]): 1.4 µM

CC(C)Cc1ccc(CC(=O)O)cc1 [Compound 3c, 2-(4-isobutylphenyl)acetic acid]
inhibition at 10 µM (purified murine COX-2 [1]; [6]): 14%
IC50 (purified murine COX-2 [1]; [7]): 5.5 µM

O=C(O)Cc1cccc(Oc2ccccc2)c1 [Compound 3d, 2-(3-phenoxyphenyl)acetic acid]
inhibition at 10 µM (purified murine COX-2 [1]; [6]): 24%
IC50 (purified murine COX-2 [1]; [7]): 6.1 µM
inhibition at 10 µM (purified murine COX-2 [1]; [8]): 68%

O=C(O)Cc1cccc(C(=O)c2ccccc2)c1 [Compound 3e, Desmethylketoprofen]
inhibition at 10 µM (purified murine COX-2 [1]; [6]): 10%
IC50 (purified murine COX-2 [1]; [7]): 0.5 µM

COc1ccc2cc(C(C)(C)C(=O)O)ccc2c1 [Compound 4b, 2-(6-methoxynaphthalen-2-yl)-2-methylpropanoic acid]
inhibition at 10 µM (purified murine COX-2 [1]; [9]): < 50%
inhibition at 10 µM (purified murine COX-2 [1]; [6]): 7%
inhibition at 10 µM (purified murine COX-2 [1]; [8]): 12%

CC(C)Cc1ccc(C(C)(C)C(=O)O)cc1 [Compound 4c, 2-(4-isobutylphenyl)-2-methylpropanoic acid]
inhibition at 10 µM (purified murine COX-2 [1]; [9]): < 50%
inhibition at 10 µM (purified murine COX-2 [1]; [6]): 5%
inhibition at 10 µM (purified murine COX-2 [1]; [8]): 5%

CC(C)(C(=O)O)c1cccc(Oc2ccccc2)c1 [Compound 4d, 2-methyl-2-(3-phenoxyphenyl)propanoic acid]
inhibition at 10 µM (purified murine COX-2 [1]; [6]): 17%
IC50 (purified murine COX-2 [1]; [7]): 7.3 µM
inhibition at 10 µM (purified murine COX-2 [1]; [8]): 65%

CC(C)(C(=O)O)c1cccc(C(=O)c2ccccc2)c1 [Compound 4e, 2-(3-benzoylphenyl)-2-methylpropanoic acid]
inhibition at 10 µM (purified murine COX-2 [1]; [6]): 32%
IC50 (purified murine COX-2 [1]; [7]): 3 µM

COc1ccc2cc(C3(C(=O)O)CC3)ccc2c1 [Compound 5b, 1-(6-methoxynaphthalen-2-yl)cyclopropanecarboxylic acid]
inhibition at 10 µM (purified murine COX-2 [1]; [6]): 6%
IC50 (purified murine COX-2 [1]; [7]): 3.4 µM
inhibition at 10 µM (purified murine COX-2 [1]; [8]): 77%

CC(C)Cc1ccc(C2(C(=O)O)CC2)cc1 [Compound 5c, 1-(4-isobutylphenyl)cyclopropanecarboxylic acid]
inhibition at 10 µM (purified murine COX-2 [1]; [9]): < 50%
inhibition at 10 µM (purified murine COX-2 [1]; [6]): 10%
inhibition at 10 µM (purified murine COX-2 [1]; [8]): 45%

O=C(O)C1(c2cccc(Oc3ccccc3)c2)CC1 [Compound 5d, 1-(3-phenoxyphenol)cyclopropanecarboxylic acid]
inhibition at 10 µM (purified murine COX-2 [1]; [6]): 15%
IC50 (purified murine COX-2 [1]; [7]): 5 µM

O=C(c1ccccc1)c1cccc(C2(C(=O)O)CC2)c1 [Compound 5e, 1-(3-benzoylphenyl)cyclopropanecarboxylic acid]
inhibition at 10 µM (purified murine COX-2 [1]; [6]): 10%
IC50 (purified murine COX-2 [1]; [7]): 4.1 µM
inhibition at 10 µM (purified murine COX-2 [1]; [8]): 75%

C[C@@H](C(=O)O)c1cccc(Oc2ccccc2)c1 [Compound 7d, (R)-Fenoprofen]
inhibition at 10 µM (purified murine COX-2 [1]; [4]): 10%
inhibition at 10 µM (purified murine COX-2 [1]; read-out: IC50 (μM) 2-AG): < 50%
inhibition at 10 µM (purified murine COX-2 [1]; read-out: Maximum inhibition of 2-AG oxygenation, chiral profens, at 10 μM inhibitor, 2-AG 5 μM): 25%

C[C@@H](C(=O)O)c1cccc(C(=O)c2ccccc2)c1 [Compound 7e, (R)-ketoprofen]
IC50 (purified murine COX-2 [1]; [5]): 7.3 µM
inhibition at 10 µM (purified murine COX-2 [1]; read-out: % Inhibition AA): 20%
inhibition at 10 µM (purified murine COX-2 [1]; read-out: Maximum inhibition of 2-AG oxygenation): 56%

Cc1ccc(Nc2c(F)cccc2Cl)c(CC(=O)O)c1 [Compound 101]
inhibition (purified murine COX-2 [2]; read-out: AA IC50 (mM)): < 50%

Cc1ccc(Nc2ccccc2Cl)c(CC(=O)O)c1 [Compound 102]
inhibition (purified murine COX-2 [2]; [10]): 0%
inhibition (purified murine COX-2 [2]; [11]): < 50%

Cc1ccc(Nc2ccccc2F)c(CC(=O)O)c1 [Compound 103]
inhibition (purified murine COX-2 [2]; [10]): 0%
inhibition (purified murine COX-2 [2]; [11]): < 50%

Cc1ccc(Nc2ccccc2)c(CC(=O)O)c1 [Compound 104]
inhibition (purified murine COX-2 [2]; [10]): 10%
inhibition (purified murine COX-2 [2]; [11]): < 50%

Cc1ccc(Nc2c(Cl)cccc2Cl)c(CC(=O)O)c1 [Compound 105]
inhibition (purified murine COX-2 [2]; [10]): 60%

Cc1ccc(Nc2c(F)cccc2F)c(CC(=O)O)c1 [Compound 106]
inhibition (purified murine COX-2 [2]; [10]): 0%
inhibition (purified murine COX-2 [2]; [11]): < 50%

Cc1ccc(Nc2c(C)cccc2F)c(CC(=O)O)c1 [Compound 107]
inhibition (purified murine COX-2 [2]; [11]): < 50%

Cc1ccc(Nc2c(Cl)cc(Cl)cc2Cl)c(CC(=O)O)c1 [Compound 108]
inhibition (purified murine COX-2 [2]; [10]): 32%
inhibition (purified murine COX-2 [2]; [11]): < 50%

O=C(O)Cc1ccccc1Nc1c(F)cccc1Cl [Compound 109]
inhibition (purified murine COX-2 [2]; read-out: AA IC50 (mM)): < 50%

O=C(O)Cc1ccccc1Nc1ccccc1Cl [Compound 110]
inhibition (purified murine COX-2 [2]; read-out: AA IC50 (mM)): < 50%

O=C(O)Cc1ccccc1Nc1ccccc1F [Compound 111]
inhibition (purified murine COX-2 [2]; [10]): 0%
inhibition (purified murine COX-2 [2]; [11]): < 50%

O=C(O)Cc1ccccc1Nc1ccccc1 [Compound 112]
inhibition (purified murine COX-2 [2]; read-out: AA IC50 (mM)): < 50%

O=C(O)Cc1ccccc1Nc1c(F)cccc1F [Compound 114]
inhibition (purified murine COX-2 [2]; read-out: AA IC50 (mM)): < 50%

O=C(Oc1ccc([N+](=O)[O-])cc1)N1CCC(C(O)(c2ccc3c(c2)OCO3)c2ccc3c(c2)OCO3)CC1 [JZL-184, reference compound]
Brain levels of 2-AG and 3 other MAG species [3]: increased
